As usually defined, the IC50 is the midpoint of a concentration-inhibition curve.

Several values for one entry are separate records, joined by “and”; a condition that tells them apart may be missing. Equal values may be shown once.

Intestinal-type alkaline phosphatase (Homo sapiens), sequence (P09923 whole entry, looked up): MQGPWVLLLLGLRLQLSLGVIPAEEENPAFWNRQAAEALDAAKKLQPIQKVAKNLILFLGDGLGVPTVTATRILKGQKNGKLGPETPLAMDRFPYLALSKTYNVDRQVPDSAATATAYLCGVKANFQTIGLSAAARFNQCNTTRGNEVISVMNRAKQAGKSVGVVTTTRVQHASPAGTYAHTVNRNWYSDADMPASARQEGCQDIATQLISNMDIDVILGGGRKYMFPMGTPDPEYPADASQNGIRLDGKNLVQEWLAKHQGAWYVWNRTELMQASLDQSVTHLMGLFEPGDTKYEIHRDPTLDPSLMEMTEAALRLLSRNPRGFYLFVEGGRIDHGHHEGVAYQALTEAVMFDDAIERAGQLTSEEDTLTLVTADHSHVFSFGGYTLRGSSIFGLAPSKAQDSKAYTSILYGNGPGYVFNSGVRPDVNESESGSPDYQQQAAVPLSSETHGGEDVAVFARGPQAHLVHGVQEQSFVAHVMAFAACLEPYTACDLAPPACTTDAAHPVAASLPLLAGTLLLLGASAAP

This test has as its target Intestinal-type alkaline phosphatase (Homo sapiens) (UniProt P09923). Put plainly: human IAP enzyme inhibitors, dose response, biochemical, luminescence (AID 1017). The following applies: purified human IAP, luminescent substrate.
On to `O=C1C2CC=CCC2C(=O)N1c1n[nH]c(Cc2ccccc2)n1` (stereo not drawn), for which the 50% inhibitory concentration (IC50) was 0.539 µM and 0.922 µM. For `O=C1C2CC=CCC2C(=O)N1c1n[nH]c(-c2ccccc2)n1` (stereo not drawn), the IC50 is 0.11 µM and 0.157 µM. On to `Oc1ccc(CCN=Cc2c(O)[nH]c3ccccc23)cc1O`, for which the IC50 was 9.95 µM.

For the origin of these results see PubChem BioAssay AID1017 (Sanford-Burnham Center for Chemical Genomics, 2008).
